Biological target: T1, GLUT1 (Homo sapiens, UniProt P11166)
T1 sequence (P11166 1-492): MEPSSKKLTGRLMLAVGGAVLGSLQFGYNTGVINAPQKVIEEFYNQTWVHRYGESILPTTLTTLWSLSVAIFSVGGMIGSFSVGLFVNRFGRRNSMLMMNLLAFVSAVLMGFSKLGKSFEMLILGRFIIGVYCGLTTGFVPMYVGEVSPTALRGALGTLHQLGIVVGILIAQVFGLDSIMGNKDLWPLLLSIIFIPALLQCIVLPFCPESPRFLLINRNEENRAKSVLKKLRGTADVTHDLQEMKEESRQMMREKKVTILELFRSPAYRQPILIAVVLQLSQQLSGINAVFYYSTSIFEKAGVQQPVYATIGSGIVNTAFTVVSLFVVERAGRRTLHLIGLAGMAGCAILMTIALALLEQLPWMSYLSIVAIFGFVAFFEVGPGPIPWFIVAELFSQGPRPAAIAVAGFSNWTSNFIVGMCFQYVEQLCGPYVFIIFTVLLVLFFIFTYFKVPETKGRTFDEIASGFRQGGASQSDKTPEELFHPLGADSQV
Assay: Indirect measurement of GLUT1 activity by quantification of intracellular ATP levels (glucose induced ATP increase)
Type: cell-based
Parameters: endogenous in cells; host or cells: DLD1 or CHO-K1
Settings: read-out: IC50 regarding glucose induced ATP increase (GLUT1 inhibition)
Outline: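 Intracellular ATP was measured by CellTiter-Glo luminescence as an indirect readout of transport: glucose-driven for GLUT1, fructose-driven for GLUT2. DLD1 or CHO-K1 cells were used alongside an oxidative phosphorylation inhibitor. Beforehand, cells were held overnight in glucose-free 1% FCS medium to deplete ATP.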

Compound	IC50 [nM]
Cc1nn(Cc2ccc(F)c(F)c2)c(C)c1NC(=O)c1cc(C(F)(F)F)nc2cc(Br)ccc12 [Example 189, 7-bromo-N-[1-(3,4-difluorobenzyl)-3,5-dimethyl-1H-pyrazol-4-yl]-2-(trifluoromethyl)quinoline-4-carboxamide]	165
Cc1nn(Cc2ccc(F)c(Cl)c2)c(C)c1NC(=O)c1cc(C(F)(F)F)nc2ccc(Br)cc12 [Example 190, 6-bromo-N-[1-(3-chloro-4-fluorobenzyl)-3,5-dimethyl-1H-pyrazol-4-yl]-2-(trifluoromethyl)quinoline-4-carboxamide]	171
Cc1nn(Cc2ccc(F)c(Cl)c2)c(C)c1NC(=O)c1cc(C(F)(F)F)nc2cc(F)c(F)cc12 [Example 191, N-[1-(3-chloro-4-fluorobenzyl)-3,5-dimethyl-1H-pyrazol-4-yl]-6,7-difluoro-2-(trifluoromethyl)quinoline-4-carboxamide]	171
COc1ccc2nccc(C(=O)Nc3c(C)nn(Cc4ccc(F)cc4)c3C)c2c1 [Example 192, N-[1-(4-fluorobenzyl)-3,5-dimethyl-1H-pyrazol-4-yl]-6-methoxyquinoline-4-carboxamide]	177
Cc1c(NC(=O)c2cc(C(F)(F)F)nc3cc(F)c(F)cc23)c(C(F)(F)F)nn1Cc1ccc(F)cc1 [Example 193, 6,7-difluoro-N-[1-(4-fluorobenzyl)-5-methyl-3-(trifluoromethyl)-1H-pyrazol-4-yl]-2-(trifluoromethyl)quinoline-4-carboxamide]	215
COCCN(C(=O)c1cc(C(F)(F)F)nc2ccc(Br)cc12)c1c(C)nn(Cc2ccc(F)cc2)c1C [Example 194, 6-bromo-N-[1-(4-fluorobenzyl)-3,5-dimethyl-1H-pyrazol-4-yl]-N-(2-methoxyethyl)-2-(trifluoromethyl)quinoline-4-carboxamide]	229
Cc1nn(CC2CCCCC2)c(C)c1NC(=O)c1cc(C(F)(F)F)nc2cc(F)c(F)cc12 [Example 195, N-[1-(cyclohexylmethyl)-3,5-dimethyl-1H-pyrazol-4-yl]-6,7-difluoro-2-(trifluoromethyl)quinoline-4-carboxamide]	272
Cc1nn(Cc2cccnc2)c(C)c1NC(=O)c1cc(C(F)(F)F)nc2cc(F)c(F)cc12 [Example 196, N-[3,5-dimethyl-1-(pyridin-3-ylmethyl)-1H-pyrazol-4-yl]-6,7-difluoro-2-(trifluoromethyl)quinoline-4-carboxamide]	286
Cc1c(NC(=O)c2cc(C(F)(F)F)nc3ccc(Br)cc23)c(C(F)(F)F)nn1Cc1ccc(F)c(F)c1 [Example 197, 6-bromo-N-[1-(3,4-difluorobenzyl)-5-methyl-3-(trifluoromethyl)-1H-pyrazol-4-yl]-2-(trifluoromethyl)quinoline-4-carboxamide]	333
Cc1nn(Cc2ccc(F)cc2)c(C)c1NC(=O)c1cc(N2CCOCC2)nc2ccccc12 [Example 198, N-[1-(4-fluorobenzyl)-3,5-dimethyl-1H-pyrazol-4-yl]-2-(morpholin-4-yl)quinoline-4-carboxamide]	438
Cc1c(NC(=O)c2cc(C(F)(F)F)nc3c(Cl)cc(Cl)cc23)c(C(F)(F)F)nn1Cc1ccc(F)c(F)c1 [Example 199, 6,8-dichloro-N-[1-(3,4-difluorobenzyl)-5-methyl-3-(trifluoromethyl)-1H-pyrazol-4-yl]-2-(trifluoromethyl)quinoline-4-carboxamide]	441
Cc1nn(Cc2ccc(F)cc2)c(C)c1N(Cc1ccccc1)C(=O)c1cc(C(F)(F)F)nc2ccc(Br)cc12 [Example 200]	539
Cc1ccc2nc(C)cc(C(=O)Nc3c(C)nn(Cc4ccc(C#N)nc4)c3C)c2c1 [Example 201, N-{1-[(6-cyanopyridin-3-yl)methyl]-3,5-dimethyl-1H-pyrazol-4-yl}-2,6-dimethylquinoline-4-carboxamide]	557
Cc1ccc2nc(C)cc(C(=O)Nc3c(C)nn(Cc4ccc(C(=O)NCCO)cc4)c3C)c2c1 [Example 202, N-(1-{4-[(2-hydroxyethyl)carbamoyl]benzyl}-3,5-dimethyl-1H-pyrazol-4-yl)-2,6-dimethylquinoline-4-carboxamide]	562
Cc1ccc2nc(C)cc(C(=O)Nc3c(C(F)(F)F)nn(Cc4ccc(F)c(F)c4)c3C)c2c1 [Example 203, N-[1-(3,4-difluorobenzyl)-5-methyl-3-(trifluoromethyl)-1H-pyrazol-4-yl]-2,6-dimethylquinoline-4-carboxamide]	602
Cc1ccc2nc(C)cc(C(=O)Nc3c(C(F)(F)F)nn(Cc4ccc(F)cc4F)c3C)c2c1 [Example 204, N-[1-(2,4-difluorobenzyl)-5-methyl-3-(trifluoromethyl)-1H-pyrazol-4-yl]-2,6-dimethylquinoline-4-carboxamide]	613

Compound	IC50 [nM]
Cc1c(NC(=O)c2cc(C(F)(F)F)nc3c(Cl)cc(Cl)cc23)c(C(F)(F)F)nn1Cc1ccc(F)cc1F [Example 205, 6,8-dichloro-N-[1-(2,4-difluorobenzyl)-5-methyl-3-(trifluoromethyl)-1H-pyrazol-4-yl]-2-(trifluoromethyl)quinoline-4-carboxamide]	613
Cc1ccc2nc(C)cc(C(=O)Nc3c(C)nn(CC4CCCCC4)c3C)c2c1 [Example 206, N-[1-(cyclohexylmethyl)-3,5-dimethyl-1H-pyrazol-4-yl]-2,6-dimethylquinoline-4-carboxamide]	667
Cc1c(NC(=O)c2cc(C(F)(F)F)nc3cc(F)c(F)cc23)c(C(F)(F)F)nn1Cc1ccc(F)c(F)c1 [Example 207, N-[1-(3,4-difluorobenzyl)-5-methyl-3-(trifluoromethyl)-1H-pyrazol-4-yl]-6,7-difluoro-2-(trifluoromethyl)quinoline-4-carboxamide]	688
Cc1ccc2nc(C)cc(C(=O)Nc3c(C)nn(Cc4cccnc4)c3C)c2c1 [Example 208, N-[3,5-dimethyl-1-(pyridin-3-ylmethyl)-1H-pyrazol-4-yl]-2,6-dimethylquinoline-4-carboxamide]	741
Cc1nn(Cc2ccc(F)cc2)c(C)c1NC(=O)c1cc(C(=O)N(C)C)nc2ccccc12 [Example 209, N^4-[1-(4-fluorobenzyl)-3,5-dimethyl-1H-pyrazol-4-yl]-N^2,N^2-dimethylquinoline-2,4-dicarboxamide]	817
Cc1c(NC(=O)c2cc(C(F)(F)F)nc3cc(F)c(F)cc23)c(C(F)(F)F)nn1Cc1ccc(F)cc1F [Example 210, N-[1-(2,4-difluorobenzyl)-5-methyl-3-(trifluoromethyl)-1H-pyrazol-4-yl]-6,7-difluoro-2-(trifluoromethyl)quinoline-4-carboxamide]	849
Cc1nn(Cc2ccc(F)cc2)c(C)c1NC(=O)c1ccnc2ccccc12 [Example 211, N-[1-(4-fluorobenzyl)-3,5-dimethyl-1H-pyrazol-4-yl]quinoline-4-carboxamide]	957
Cc1nn(Cc2ccc(C#N)cc2)c(C)c1NC(=O)c1cc(C(N)=O)nc2cc(F)c(Cl)cc12 [Example 212, 6-chloro-N^4-[1-(4-cyanobenzyl)-3,5-dimethyl-1H-pyrazol-4-yl]-7-fluoroquinoline-2,4-dicarboxamide]	0.6
Cc1c(NC(=O)c2cc(C(N)=O)nc3cc(F)c(Cl)cc23)c(C(F)(F)F)nn1Cc1ccc(C#N)cc1 [Example 213, 6-chloro-N^4-[1-(4-cyanobenzyl)-5-methyl-3-(trifluoromethyl)-1H-pyrazol-4-yl]-7-fluoroquinoline-2,4-dicarboxamide]	0.7
COc1ccc(Cn2nc(C)c(NC(=O)c3cc(C(N)=O)nc4cc(F)c(Cl)cc34)c2C)cc1 [Example 214, 6-chloro-7-fluoro-N^4-[1-(4-methoxybenzyl)-3,5-dimethyl-1H-pyrazol-4-yl]quinoline-2,4-dicarboxamide]	1.1
Cc1nn(Cc2ccccc2C#N)c(C)c1NC(=O)c1cc(C(N)=O)nc2cc(F)c(Cl)cc12 [Example 215, 6-chloro-N^4-[1-(2-cyanobenzyl)-3,5-dimethyl-1H-pyrazol-4-yl]-7-fluoroquinoline-2,4-dicarboxamide]	1.6
Cc1c(NC(=O)c2cc(C(N)=O)nc3cc(F)c(F)cc23)c(C(F)(F)F)nn1Cc1ccc(C#N)cc1 [Example 216, N^4-[1-(4-cyanobenzyl)-5-methyl-3-(trifluoromethyl)-1H-pyrazol-4-yl]-6,7-difluoroquinoline-2,4-dicarboxamide]	2.1
Cc1nn(Cc2ccc(S(C)(=O)=O)cc2)c(C)c1NC(=O)c1cc(C(F)(F)F)nc2ccc(Br)cc12 [Example 217, 6-bromo-N-{3,5-dimethyl-1-[4-(methylsulfonyl)benzyl]-1H-pyrazol-4-yl}-2-(trifluoromethyl)quinoline-4-carboxamide]	3.2
Cc1nn(Cc2ccc(C#N)c(F)c2)c(C)c1NC(=O)c1cc(C(F)(F)F)nc2ccc(Br)cc12 [Example 218, 6-bromo-N-[1-(4-cyano-3-fluorobenzyl)-3,5-dimethyl-1H-pyrazol-4-yl]-2-(trifluoromethyl)quinoline-4-carboxamide]	3.4
Cc1c(NC(=O)c2cc(C(N)=O)nc3ccc(F)cc23)c(C(F)(F)F)nn1Cc1ccc(C#N)cc1 [Example 219, N^4-[1-(4-cyanobenzyl)-5-methyl-3-(trifluoromethyl)-1H-pyrazol-4-yl]-6-fluoroquinoline-2,4-dicarboxamide]	5.4
